ChEMBL document CHEMBL4130404, “Lamellodysidines A and B, Sesquiterpenes Isolated from the Marine Sponge Lamellodysidea herbacea” (J Nat Prod, 2017)
Active and inactive are the calls of the source. The calls are words filed in the database; no cut-off is given here.

Tests used:
[1] = test system: Macrophage; assay: Inhibition of cholesterol ester accumulation in macrophages (unknown origin); type: functional, cell-based
[2] = test system: Macrophage; assay: Inhibition of RANKL-induced formation of multinuclear osteoclasts in macrophages (unknown origin); type: functional, cell-based
[3] = organism: Homo sapiens; assay: Inhibition of ubiquitin/proteasome (unknown origin)
[4] = target: T1, Ubiquitin-like modifier-activating enzyme 1 (Homo sapiens) (UniProt P22314); assay: Inhibition of ubiquitin/ubiquitin-activating enzyme E1 (unknown origin)
T1 sequence (whole entry): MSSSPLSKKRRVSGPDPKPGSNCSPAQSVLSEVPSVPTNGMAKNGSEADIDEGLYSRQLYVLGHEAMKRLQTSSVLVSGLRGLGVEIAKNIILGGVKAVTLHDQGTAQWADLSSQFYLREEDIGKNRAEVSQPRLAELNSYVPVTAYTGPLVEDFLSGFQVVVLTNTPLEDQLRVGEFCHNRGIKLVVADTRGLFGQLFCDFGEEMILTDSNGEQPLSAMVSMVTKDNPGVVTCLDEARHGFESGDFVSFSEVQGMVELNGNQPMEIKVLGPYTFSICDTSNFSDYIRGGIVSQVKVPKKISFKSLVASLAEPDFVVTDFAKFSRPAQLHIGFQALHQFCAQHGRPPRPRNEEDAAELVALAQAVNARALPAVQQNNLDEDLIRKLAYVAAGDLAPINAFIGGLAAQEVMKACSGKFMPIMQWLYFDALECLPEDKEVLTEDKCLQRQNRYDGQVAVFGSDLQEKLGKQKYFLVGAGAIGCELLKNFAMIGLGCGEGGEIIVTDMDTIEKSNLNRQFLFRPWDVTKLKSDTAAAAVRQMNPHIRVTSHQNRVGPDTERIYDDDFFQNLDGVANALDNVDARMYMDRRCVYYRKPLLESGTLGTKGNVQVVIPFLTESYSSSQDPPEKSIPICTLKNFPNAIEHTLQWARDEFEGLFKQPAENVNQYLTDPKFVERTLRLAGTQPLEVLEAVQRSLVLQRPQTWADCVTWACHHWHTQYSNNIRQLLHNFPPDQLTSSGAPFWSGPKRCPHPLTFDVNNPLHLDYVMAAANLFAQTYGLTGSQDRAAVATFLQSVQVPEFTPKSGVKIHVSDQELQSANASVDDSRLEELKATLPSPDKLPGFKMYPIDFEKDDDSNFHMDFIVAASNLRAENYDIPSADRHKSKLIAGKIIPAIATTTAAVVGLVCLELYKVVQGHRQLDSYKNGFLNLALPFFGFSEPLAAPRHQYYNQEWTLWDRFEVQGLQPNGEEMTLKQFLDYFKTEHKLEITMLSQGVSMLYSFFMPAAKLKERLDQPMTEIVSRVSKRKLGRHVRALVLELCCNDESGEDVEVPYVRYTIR

[5] = organism: Homo sapiens; assay: Inhibition of ubiquitin/Ubc13/Uev1A (unknown origin)
[6] = target: Tumour suppressor p53/oncoprotein Mdm2 (Homo sapiens) (UniProt P04637+Q00987); assay: Inhibition of ubiquitin/p53/Mdm2 (unknown origin); type: protein assay
[7] = target: Ubiquitin carboxyl-terminal hydrolase 7 (Homo sapiens) (UniProt Q93009); assay: Inhibition of ubiquitin/USP7 (unknown origin)
Sequence of Ubiquitin carboxyl-terminal hydrolase 7 (Homo sapiens) (Q93009 whole entry, looked up): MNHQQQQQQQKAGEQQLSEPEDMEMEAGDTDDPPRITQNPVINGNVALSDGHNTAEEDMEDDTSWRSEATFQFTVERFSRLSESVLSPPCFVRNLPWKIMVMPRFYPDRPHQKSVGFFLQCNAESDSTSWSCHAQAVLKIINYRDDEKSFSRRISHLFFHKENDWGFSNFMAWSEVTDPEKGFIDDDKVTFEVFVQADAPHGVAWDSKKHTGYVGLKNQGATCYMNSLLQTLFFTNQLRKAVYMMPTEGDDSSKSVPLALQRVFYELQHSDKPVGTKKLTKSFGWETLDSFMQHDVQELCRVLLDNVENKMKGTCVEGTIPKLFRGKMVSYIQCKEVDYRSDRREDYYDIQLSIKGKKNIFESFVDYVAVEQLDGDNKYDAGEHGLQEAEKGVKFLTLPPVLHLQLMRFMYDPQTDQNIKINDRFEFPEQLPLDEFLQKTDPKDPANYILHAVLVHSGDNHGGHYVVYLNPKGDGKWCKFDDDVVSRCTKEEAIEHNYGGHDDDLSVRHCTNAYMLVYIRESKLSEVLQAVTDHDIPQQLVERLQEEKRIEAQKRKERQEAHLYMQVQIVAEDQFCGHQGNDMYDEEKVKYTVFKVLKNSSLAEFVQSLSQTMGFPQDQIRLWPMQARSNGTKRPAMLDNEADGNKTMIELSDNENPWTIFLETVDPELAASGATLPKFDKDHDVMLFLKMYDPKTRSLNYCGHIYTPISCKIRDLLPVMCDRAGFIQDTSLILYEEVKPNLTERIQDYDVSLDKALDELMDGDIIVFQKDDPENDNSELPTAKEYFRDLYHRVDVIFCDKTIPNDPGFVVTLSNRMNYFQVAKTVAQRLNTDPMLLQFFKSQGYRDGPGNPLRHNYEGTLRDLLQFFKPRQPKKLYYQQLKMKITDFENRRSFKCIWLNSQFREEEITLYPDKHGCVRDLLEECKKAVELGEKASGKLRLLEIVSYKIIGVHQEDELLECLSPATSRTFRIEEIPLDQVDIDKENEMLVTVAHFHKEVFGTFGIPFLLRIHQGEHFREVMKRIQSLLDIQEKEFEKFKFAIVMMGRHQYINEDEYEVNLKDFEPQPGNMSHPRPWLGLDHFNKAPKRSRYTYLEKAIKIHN

Sequence of Tumour suppressor p53/oncoprotein Mdm2 (Homo sapiens) (P04637 whole entry, looked up): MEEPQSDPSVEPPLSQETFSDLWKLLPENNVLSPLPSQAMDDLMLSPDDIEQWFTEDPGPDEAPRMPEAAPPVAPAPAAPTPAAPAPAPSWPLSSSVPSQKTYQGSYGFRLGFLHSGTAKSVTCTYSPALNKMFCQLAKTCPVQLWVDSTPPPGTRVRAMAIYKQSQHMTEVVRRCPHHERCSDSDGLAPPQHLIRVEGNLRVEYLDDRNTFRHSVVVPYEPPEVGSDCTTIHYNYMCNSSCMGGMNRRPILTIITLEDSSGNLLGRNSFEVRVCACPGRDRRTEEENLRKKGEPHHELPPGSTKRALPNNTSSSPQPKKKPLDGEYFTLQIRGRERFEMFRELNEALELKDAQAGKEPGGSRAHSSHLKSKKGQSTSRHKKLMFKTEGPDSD
Sequence of Tumour suppressor p53/oncoprotein Mdm2 (Homo sapiens) (Q00987 whole entry, looked up): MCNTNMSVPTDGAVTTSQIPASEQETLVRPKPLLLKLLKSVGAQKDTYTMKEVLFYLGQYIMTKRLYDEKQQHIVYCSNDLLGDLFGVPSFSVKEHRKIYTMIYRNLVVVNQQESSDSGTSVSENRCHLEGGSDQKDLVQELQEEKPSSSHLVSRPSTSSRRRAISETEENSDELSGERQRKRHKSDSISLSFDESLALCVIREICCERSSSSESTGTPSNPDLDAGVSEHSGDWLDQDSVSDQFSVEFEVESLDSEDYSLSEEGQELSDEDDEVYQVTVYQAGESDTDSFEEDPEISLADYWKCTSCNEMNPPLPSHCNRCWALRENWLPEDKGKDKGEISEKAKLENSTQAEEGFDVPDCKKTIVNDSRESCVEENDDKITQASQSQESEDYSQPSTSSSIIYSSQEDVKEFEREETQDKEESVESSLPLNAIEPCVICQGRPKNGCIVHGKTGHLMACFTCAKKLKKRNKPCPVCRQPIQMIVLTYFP

inhibition [3]: inactive
inhibition [4]: inactive
inhibition [5]: inactive
inhibition [6]: inactive
inhibition [7]: inactive
SMILES: CC1C2C=CC3(C)C1(C)CCC31C(=O)O[C@H](O)[C@@H]21 (some centres not stated)
inhibition [1]: inactive
inhibition [2]: inactive
